For 24 compounds, CC50 and IC50 results are on record in patent US20240307419A1, “CONFORMATIONALLY-CONSTRAINED INHIBITORS OF 3C OR 3C-LIKE PROTEASES” (priority 2021, published 2024).

Each structure is given as a SMILES string. Some results are limits rather than exact numbers.

The first data set deals with CRFK cells.
Assay: not given
Particulars: cat.
Regarding `CC(C)C[C@H](NC(=O)OC1CN(C(=O)OC(C)(C)C)C1)C(=O)N[C@H](C=O)C[C@H]1CCNC1=O` [Compound 12b, Tert-butyl 3-((((S)-4-methyl-1-oxo-1-(((S)-1-oxo-3-((R)-2-oxopyrrolidin-3-yl)propan-2-yl)amino)pentan-2-yl)carbamoyl)oxy)azetidine-1-carboxylate], the CC50 (usually the concentration giving 50% cytotoxicity) was above 100 µM.

`CC(C)C[C@H](NC(=O)OC1CC2(C1)CN(S(C)(=O)=O)C2)C(=O)N[C@@H](C[C@H]1CCNC1=O)C(O)S(=O)(=O)O` (stereo partly drawn) [Compound 4c, Sodium (2S)-1-hydroxy-2-((S)-4-methyl-2-((((2-(methylsulfonyl)-2-azaspiro[3.3]heptan-6-yl)oxy)carbonyl)amino)pentanamido)-3-((R)-2-oxopyrrolidin-3-yl)propane-1-sulfonate]: the CC50 was above 100 µM.

The compound `CC(C)C[C@H](NC(=O)OCC1CN(C(=O)Cc2ccccc2)C1)C(=O)N[C@H](C=O)C[C@H]1CCNC1=O` [Compound 15b, (1-(2-Phenylacetyl)azetidin-3-yl)methyl ((S)-4-methyl-1-oxo-1-(((S)-1-oxo-3-((R)-2-oxopyrrolidin-3-yl)propan-2-yl)amino)pentan-2-yl)carbamate] yielded a CC50 above 100 µM.

On to `CC(C)C[C@H](NC(=O)OCC1CN(S(C)(=O)=O)C1)C(=O)N[C@@H](C[C@H]1CCNC1=O)C(O)S(=O)(=O)O` (stereo partly drawn) [Compound 17c, Sodium (2S)-1-hydroxy-2-((S)-4-methyl-2-((((1-(methylsulfonyl)azetidin-3-yl)methoxy)carbonyl)amino)pentanamido)-3-((R)-2-oxopyrrolidin-3-yl)propane-1-sulfonate], for which the cytotoxic concentration (CC50) was above 100 µM.

The compound `CC(C)C[C@H](NC(=O)OC1CC2(CCN(C#N)CC2)C1)C(=O)N[C@H](C=O)C[C@H]1CCNC1=O` [Compound 11b, 7-Cyano-7-azaspiro[3.5]nonan-2-yl ((S)-4-methyl-1-oxo-1-(((S)-1-oxo-3-((R)-2-oxopyrrolidin-3-yl)propan-2-yl)amino)pentan-2-yl)carbamate] returned a CC50 above 100 µM.

Turning to `CC(C)C[C@H](NC(=O)OCC1CN(C(=O)C2CC3CCC2C3)C1)C(=O)N[C@H](C=O)C[C@H]1CCNC1=O` (stereo partly drawn) [Compound 16b, (1-(Bicyclo[2.2.1]heptane-2-carbonyl)azetidin-3-yl)methyl ((S)-4-methyl-1-oxo-1-(((S)-1-oxo-3-((R)-2-oxopyrrolidin-3-yl)propan-2-yl)amino)pentan-2-yl)carbamate], the CC50 is above 100 µM.

Compound `CC(C)C[C@H](NC(=O)OC1CN(C(=O)OC(C)(C)C)C1)C(=O)N[C@@H](C[C@H]1CCNC1=O)C(O)S(=O)(=O)O` (stereo partly drawn) [Compound 12c, Sodium (2S)-2-((S)-2-((((1-(tert-butoxycarbonyl)azetidin-3-yl)oxy)carbonyl)amino)-4-methylpentanamido)-1-hydroxy-3-((R)-2-oxopyrrolidin-3-yl)propane-1-sulfonate] had a CC50 above 100 µM.

With `CC(C)C[C@H](NC(=O)OC1CC2(CCN(C(=O)C(C)C)CC2)C1)C(=O)N[C@H](C=O)C[C@H]1CCNC1=O` [Compound 8b, 7-Isobutyryl-7-azaspiro[3.5]nonan-2-yl ((S)-4-methyl-1-oxo-1-(((S)-1-oxo-3-((R)-2-oxopyrrolidin-3-yl)propan-2-yl)amino)pentan-2-yl)carbamate], the CC50 is above 100 µM.

For the compound `CC(C)C[C@H](NC(=O)OC1CCC2(C1)CN(C(=O)OC(C)(C)C)C2)C(=O)N[C@H](C=O)C[C@H]1CCNC1=O` (stereo partly drawn) [Compound 6b, Tert-butyl 6-((((S)-4-methyl-1-oxo-1-(((S)-1-oxo-3-((R)-2-oxopyrrolidin-3-yl)propan-2-yl)amino)pentan-2-yl)carbamoyl)oxy)-2-azaspiro[3.4]octane-2-carboxylate], the CC50 was above 100 µM.

For `CC(C)C[C@H](NC(=O)OC1CC2(CCN(C(=O)C(C)C)CC2)C1)C(=O)N[C@@H](C[C@H]1CCNC1=O)C(O)S(=O)(=O)O` (stereo partly drawn) [Compound 8c, Sodium (2S)-1-hydroxy-2-((S)-2-((((7-isobutyryl-7-azaspiro[3.5]nonan-2-yl)oxy)carbonyl)amino)-4-methylpentanamido)-3-((R)-2-oxopyrrolidin-3-yl)propane-1-sulfonate], the CC50 is above 100 µM.

`CC(C)C[C@H](NC(=O)OC1CCC2(C1)CN(C(=O)OC(C)(C)C)C2)C(=O)N[C@@H](C[C@H]1CCNC1=O)C(O)S(=O)(=O)O` (stereo partly drawn) [Compound 6c, Sodium (2S)-2-((2S)-2-((((2-(tert-butoxycarbonyl)-2-azaspiro[3.4]octan-6-yl)oxy)carbonyl)amino)-4-methylpentanamido)-1-hydroxy-3-((R)-2-oxopyrrolidin-3-yl)propane-1-sulfonate] registered a CC50 above 100 µM.

Compound `CC(C)C[C@H](NC(=O)OC1(C)CN(C(=O)OC(C)(C)C)C1)C(=O)N[C@@H](C[C@H]1CCNC1=O)C(O)S(=O)(=O)O` (stereo partly drawn) [Compound 13c, Sodium (2S)-2-((S)-2-((((1-(tert-butoxycarbonyl)-3-methylazetidin-3-yl)oxy)carbonyl)amino)-4-methylpentanamido)-1-hydroxy-3-((R)-2-oxopyrrolidin-3-yl)propane-1-sulfonate] came in with a CC50 above 100 µM.

`CC(C)C[C@H](NC(=O)OCC1CN(C(=O)C2CC3CCC2C3)C1)C(=O)N[C@@H](C[C@H]1CCNC1=O)C(O)S(=O)(=O)O` (stereo partly drawn) [Compound 16c, Sodium (2S)-2-((2S)-2-((((1-(bicyclo[2.2.1]heptane-2-carbonyl)azetidin-3-yl)methoxy)carbonyl)amino)-4-methylpentanamido)-1-hydroxy-3-((R)-2-oxopyrrolidin-3-yl)propane-1-sulfonate] yielded a CC50 above 100 µM.

The compound `CC(C)C[C@H](NC(=O)OCC1CN(C(=O)Cc2ccccc2)C1)C(=O)N[C@@H](C[C@H]1CCNC1=O)C(O)S(=O)(=O)O` (stereo partly drawn) [Compound 15c, Sodium (2S)-1-hydroxy-2-((S)-4-methyl-2-((((1-(2-phenylacetyl)azetidin-3-yl)methoxy)carbonyl)amino)pentanamido)-3-((R)-2-oxopyrrolidin-3-yl)propane-1-sulfonate] displayed a CC50 above 100 µM.

For `CC(C)C[C@H](NC(=O)OCC1CN(S(C)(=O)=O)C1)C(=O)N[C@H](C=O)C[C@H]1CCNC1=O` [Compound 17b, (1-(Methylsulfonyl)azetidin-3-yl)methyl ((S)-4-methyl-1-oxo-1-(((S)-1-oxo-3-((R)-2-oxopyrrolidin-3-yl)propan-2-yl)amino)pentan-2-yl)carbamate], the CC50 is above 100 µM.

For the compound `CC(C)C[C@H](NC(=O)OC1(C)CN(C(=O)OC(C)(C)C)C1)C(=O)N[C@H](C=O)C[C@H]1CCNC1=O` [Compound 13b, Tert-butyl 3-methyl-3-((((S)-4-methyl-1-oxo-1-(((S)-1-oxo-3-((R)-2-oxopyrrolidin-3-yl)propan-2-yl)amino)pentan-2-yl)carbamoyl)oxy)azetidine-1-carboxylate], the CC50 is above 100 µM.

As for `CC(C)C[C@H](NC(=O)OC1CC2(CCN(C(=O)OC(C)(C)C)C2)C1)C(=O)N[C@H](C=O)C[C@H]1CCNC1=O` (stereo partly drawn) [Compound 5b, Tert-butyl 2-((((S)-4-methyl-1-oxo-1-(((S)-1-oxo-3-((R)-2-oxopyrrolidin-3-yl)propan-2-yl)amino)pentan-2-yl)carbamoyl)oxy)-6-azaspiro[3.4]octane-6-carboxylate], the CC50 is above 100 µM.

The next data set has as its target SARS-CoV-2 3CLpro (Severe acute respiratory syndrome coronavirus 2 (2019-nCoV) (SARS-CoV-2), UniProt P0DTD1). Put plainly: biochemical. Format: biochemical. Particulars: read-out: IC50.
For `CCCCCC12CCC(COC(=O)N[C@@H](CC(C)C)C(=O)N[C@@H](C[C@@H]3CCNC3=O)C(O)S(=O)(=O)O)(CC1)CC2` (stereo partly drawn) [Compound 3i, Sodium (2S)-1-hydroxy-2-((S)-4-methyl-2-((((4-pentylbicyclo[2.2.2]octan-1-yl)methoxy)carbonyl)amino)pentanamido)-3-((S)-2-oxopyrrolidin-3-yl)propane-1-sulfonate], the IC50 – broadly, the midpoint of a concentration-inhibition curve – stood at 0.3 ± 0.02 µM.

For the compound `CC(C)C[C@H](NC(=O)OCC12CC3CC(CC(C3)C1)C2)C(=O)N[C@@H](C[C@H]1CCNC1=O)C(O)S(=O)(=O)O` (stereo partly drawn) [Compound 3l, Sodium (2S)-2-((S)-2-(((((3S,5S,7S)-adamantan-1-yl)methoxy-d2)carbonyl)amino)-4-methylpentanamido)-1-hydroxy-3-((S)-2-oxopyrrolidin-3-yl)propane-1-sulfonate], the IC50 worked out at 0.27 ± 0.04 µM.

With `CC(C)C[C@H](NC(=O)OC[C@@]12C[C@@H]3C[C@@H](C[C@@](O)(C3)C1)C2)C(=O)N[C@H](C=O)C[C@@H]1CCNC1=O` [Compound 2o, ((1r,3R,5R,7S)-3-Hydroxyadamantan-1-yl)methyl-d2 ((S)-4-methyl-1-oxo-1-(((S)-1-oxo-3-((S)-2-oxopyrrolidin-3-yl)propan-2-yl)amino)pentan-2-yl)carbamate], the IC50 was determined as 0.74 ± 0.26 µM.

On to `[2H]C([2H])(OC(=O)N[C@@H](CC(C)C)C(=O)N[C@@H](C[C@@H]1CCNC1=O)C(O)S(=O)(=O)[O-])C12CCC(CCCCC)(CC1)CC2.[Na+]` (stereo partly drawn) [Compound 3j, Sodium (2S)-1-hydroxy-2-((S)-4-methyl-2-((((4-pentylbicyclo[2.2.2]octan-1-yl)methoxy-d2)carbonyl)amino)pentanamido)-3-((S)-2-oxopyrrolidin-3-yl)propane-1-sulfonate], for which the IC50 was 0.31 ± 0.06 µM.

As for `CC(C)C[C@H](NC(=O)OCC12CC3CC(CC(C3)C1)C2)C(=O)N[C@H](C=O)C[C@H]1CCNC1=O` [Compound 2l, ((3S,5S,7S)-Adamantan-1-yl)methyl-d2 ((S)-4-methyl-1-oxo-1-(((S)-1-oxo-3-((S)-2-oxopyrrolidin-3-yl)propan-2-yl)amino)pentan-2-yl)carbamate], the IC50 came to 0.29 ± 0.04 µM.

For the compound `CC(C)C[C@H](NC(=O)OCC12CC3CC(CC(O)(C3)C1)C2)C(=O)N[C@@H](C[C@H]1CCNC1=O)C(O)S(=O)(=O)O` (stereo partly drawn) [Compound 3o, Sodium (2S)-1-hydroxy-2-((S)-2-(((((1r,3R,5R,7S)-3-hydroxyadamantan-1-yl)methoxy-d2)carbonyl)amino)-4-methylpentanamido)-3-((S)-2-oxopyrrolidin-3-yl)propane-1-sulfonate], the IC50 was determined as 0.78 ± 0.18 µM.

`CCCCCC12CCC(COC(=O)N[C@@H](CC(C)C)C(=O)N[C@H](C=O)C[C@@H]3CCNC3=O)(CC1)CC2` [Compound 2i, (4-Pentylbicyclo[2.2.2]octan-1-yl)methyl ((S)-4-methyl-1-oxo-1-(((S)-1-oxo-3-((S)-2-oxopyrrolidin-3-yl)propan-2-yl)amino)pentan-2-yl)carbamate]: the IC50 worked out at 0.27 ± 0.02 µM.
